Read-outs that look alike come from different tables or passages of the source.
System: colorectal cancer cell lines (e.g. DLD-1, HCT 116, SW620, HCT-15, HCT-8, RKO)
Test: Cell based assay, cell viability (CellTiter-Glo), colorectal cancer cell lines
Method: Commercially available bladder cancer, prostate cancer, lung cancer, breast cancer, blood cancer, pancreatic cancer, colorectal cancer, brain cancer, neuroblastoma, melanoma, liver cancer, cervical carcinoma, ovarian cancer, renal cancer, and papilloma cell lines were each treated with trypsin-EDTA and cultured, followed by being seeded in each well of a 96 well plate. After 24 hours of treatment at constant temperature, the respective cells were treated with the candidate compound so that a final concentration became 0 to 2 μM. The treated cells were additionally cultured for 72 hours, and cell viability was measured by using an ATP detection method (CellTiter-Glo® Luminescent Cell Viability Assay, Promega).

[1] = Homo sapiens, DLD-1, 72 hours treatment, read-out: IC50, colorectal cancer cell line DLD-1
[2] = Homo sapiens, HCT 116, 72 hours treatment, read-out: IC50, colorectal cancer cell line HCT 116
[3] = Homo sapiens, HCT-8, 72 hours treatment, read-out: IC50, colorectal cancer cell line HCT-8
[4] = Homo sapiens, HCT-15, 72 hours treatment, read-out: IC50, colorectal cancer cell line HCT-15
[5] = Homo sapiens, HT-29, 72 hours treatment, read-out: IC50, colorectal cancer cell line HT-29
[6] = Homo sapiens, LoVo, 72 hours treatment, read-out: IC50, colorectal cancer cell line LoVo
[7] = Homo sapiens, SW480, 72 hours treatment, read-out: IC50, colorectal cancer cell line SW480
[8] = Homo sapiens, SW-620, SW620, 72 hours treatment, read-out: IC50, colorectal cancer cell line SW620
[9] = RKO, 72 hours treatment, read-out: IC50, colorectal cancer cell line RKO

Row | Compound | IC50 [1] | IC50 [2] | IC50 [3] | IC50 [4] | IC50 [5] | IC50 [6] | IC50 [7] | IC50 [8] | IC50 [9] | IC50 (Homo sapiens, DLD-1 cells, 72 hours treatment, read-out: IC50, colorectal cancer cell line DLD-1) | IC50 (Homo sapiens, HCT 116 cells, 72 hours treatment, read-out: IC50, colorectal cancer cell line HCT 116) | IC50 (Homo sapiens, HCT-8 cells, 72 hours treatment, read-out: IC50, colorectal cancer cell line HCT-8) | IC50 (Homo sapiens, HCT-15 cells, 72 hours treatment, read-out: IC50, colorectal cancer cell line HCT-15) | IC50 (Homo sapiens, HT-29 cells, 72 hours treatment, read-out: IC50, colorectal cancer cell line HT-29) | IC50 (Homo sapiens, LoVo cells, 72 hours treatment, read-out: IC50, colorectal cancer cell line LoVo) | IC50 (Homo sapiens, RKO cells, 72 hours treatment, read-out: IC50, colorectal cancer cell line RKO) | IC50 (Homo sapiens, SW480 cells, 72 hours treatment, read-out: IC50, colorectal cancer cell line SW480) | IC50 (Homo sapiens, SW-620, SW620 cells, 72 hours treatment, read-out: IC50, colorectal cancer cell line SW620)
1 | CC(=O)c1c([S+](C)[O-])[nH]c2c(Br)ccc(Cl)c2c1=O (stereo not drawn) [Compound 1, 3-acetyl-8-bromo-5-chloro-2-(methylsulfinyl)quinolin-4(1H)-one] | 810 nM | 1670 nM | > 2000 nM | > 2000 nM | > 10000 nM | > 2000 nM | > 2000 nM | > 2000 nM | > 2000 nM |  |  |  |  |  |  |  |  | 
2 | CC(=O)c1c([S+]([O-])c2ccccc2)[nH]c2c(Br)ccc(Cl)c2c1=O (stereo not drawn) [Compound 13, 3-acetyl-8-bromo-5-chloro-2-(phenylsulfinyl)quinolin-4(1H)-one] | > 2000 nM | > 2000 nM | > 2000 nM | > 2000 nM | > 10000 nM | > 2000 nM | > 2000 nM | > 2000 nM | > 2000 nM |  |  |  |  |  |  |  |  | 
3 | CC(=O)c1c(SCc2ccc(F)c(Cl)c2)[nH]c2c(Br)ccc(Cl)c2c1=O [Compound 30, 3-acetyl-8-bromo-5-chloro-2-((3-chloro-4-fluorobenzyl)thio)quinolin-4(1H)-one] | > 2000 nM | > 2000 nM | > 2000 nM | > 2000 nM | > 10000 nM | > 2000 nM | > 2000 nM | > 2000 nM | > 2000 nM |  |  |  |  |  |  |  |  | 
4 | CSc1c(C(C)=O)c(=O)c2c(Cl)ccc(Br)c2n1C [Compound 5, 3-acetyl-8-bromo-5-chloro-1-methyl-2-(methylthio)quinolin-4(1H)-one] | > 2000 nM | > 2000 nM | > 2000 nM | > 2000 nM | > 10000 nM | > 2000 nM | > 2000 nM | > 2000 nM | > 2000 nM |  |  |  |  |  |  |  |  | 
5 | CSc1c(C(C)=O)c(=O)c2c(Cl)ccc(Br)c2n1C(C)=O [Compound 18, 1,1′-(8-bromo-5-chloro-2-(methylthio)-4-oxoquinoline-1,3(4H)-diyl)bis(ethan-1-one)] | > 2000 nM | > 2000 nM | > 2000 nM | > 2000 nM | > 10000 nM | > 2000 nM | > 2000 nM | > 2000 nM | > 2000 nM |  |  |  |  |  |  |  |  | 
6 | CC(=O)c1c([S+]([O-])Cc2ccccc2C#N)[nH]c2c(Br)ccc(Cl)c2c1=O (stereo not drawn) [Compound 58, 2-(((3-acetyl-8-bromo-5-chloro-4-oxo-1,4-dihydroquinolin-2-yl)sulfinyl)methyl)benzonitrile] | 770 nM | 1090 nM | 1350 nM | 1100 nM | > 10000 nM | 2020 nM | 1220 nM | 1160 nM | 1120 nM |  |  |  |  |  |  |  |  | 
7 | CC(=O)c1c(S(C)(=O)=O)n(C(=O)c2ccc(Br)cc2)c2c(Br)ccc(Cl)c2c1=O [Compound 21, 3-acetyl-8-bromo-1-(4-bromobenzoyl)-5-chloro-2-(methylsulfonyl)quinolin-4(1H)-one] | > 2000 nM | > 2000 nM | > 2000 nM | > 2000 nM | > 10000 nM | > 2000 nM | > 2000 nM | > 2000 nM | > 2000 nM |  |  |  |  |  |  |  |  | 
8 | CC(=O)c1c(SCc2ccccc2)[nH]c2c(Br)ccc(Cl)c2c1=O [Compound 3, 3-acetyl-2-(benzylthio)-8-bromo-5-chloroquinolin-4(1H)-one] | > 2000 nM | > 2000 nM | > 2000 nM | > 2000 nM | > 10000 nM | > 2000 nM | > 2000 nM | > 2000 nM | > 2000 nM |  |  |  |  |  |  |  |  | 
9 | CC(=O)c1c([S+]([O-])Cc2ccc(S(F)(F)(F)(F)F)cc2)[nH]c2c(Br)ccc(Cl)c2c1=O (stereo not drawn) [Compound 68, 3-acetyl-8-bromo-5-chloro-2-((4-(pentafluoro-16-sulfanyl)benzyl)sulfinyl)quinolin-4(1H)-one] | 780 nM | 1090 nM | 1300 nM | 980 nM | > 2000 nM | > 2000 nM | 1750 nM | 1660 nM | 1330 nM |  |  |  |  |  |  |  |  | 
10 | CC(=O)c1c([S+]([O-])Cc2ccc(Cl)nc2)[nH]c2c(Br)ccc(Cl)c2c1=O (stereo not drawn) [Compound 104, 3-acetyl-8-bromo-5-chloro-2-(((6-chloropyridin-3-yl)methyl)sulfinyl)quinolin-4(1H)-one] |  |  |  |  |  |  |  |  |  | 1240 nM | 1320 nM | 1290 nM | 1490 nM | > 10000 nM | > 2000 nM | 1150 nM | 1580 nM | 1360 nM
11 | CSc1c(C(C)=O)c(=O)c2c(Cl)ccc(Br)c2n1S(=O)(=O)c1ccc(C(C)(C)C)cc1 [Compound 40, 3-acetyl-8-bromo-1-((4-(tert-butyl)phenyl)sulfonyl)-5-chloro-2-(methylthio)quinolin-4(1H)-one] | > 2000 nM | > 2000 nM | > 2000 nM | > 2000 nM | > 10000 nM | > 2000 nM | > 2000 nM | > 2000 nM | > 2000 nM |  |  |  |  |  |  |  |  | 
12 | COCSc1[nH]c2c(Br)ccc(Cl)c2c(=O)c1C(C)=O [Compound 61, 3-acetyl-8-bromo-5-chloro-2-((methoxymethyl)thio)quinolin-4(1H)-one] | > 2000 nM | > 2000 nM | > 2000 nM | > 2000 nM | > 10000 nM | > 2000 nM | > 2000 nM | > 2000 nM | > 2000 nM |  |  |  |  |  |  |  |  | 

From patent US11464770B2, “Anticancer pharmaceutical composition” (NATIONAL CANCER CENTER, priority 2016, dated 2022)
